Publication PMC3889317 (Diabetes Therapy, 2013)

Test: Plasma pharmacokinetics
Conditions: during 5 days of dosing

N#C[C@@H]1C[C@@H]2C[C@@H]2N1C(=O)[C@@H](N)C12CC3CC(O)(CC(O)(C3)C1)C2 [5-OH-Saxagliptin, 5-hydroxy-saxagliptin]
Plasma concentrations appeared to reach steady state by: Day 5
